The source of these data is ChEMBL document CHEMBL5226327, “Source and exploration of the peptides used to construct peptide-drug conjugates” (Eur J Med Chem, 2021).

Positions of bridges follow the written chain, without caps; N, C: chain ends. Non-standard residues stand in square brackets, D forms with d. Residues, ends and D or L forms follow the SMILES beside them. Pen = CC(C)(S)[C@H](N)C(=O)O

For one assay, the target named is Integrin alpha-5/beta-1 (Homo sapiens, UniProt P05556+P08648). Nature of the assay: Binding affinity to integrin alpha5beta1 (unknown origin) assessed as inhibition of integrin and fibronectin interaction. The assay is classed as protein-complex assay.
The test system of the next assay is HBL-100. In words: Inhibition of cell adhesion in human HBL-100 cells. The assay is classed as functional, cell-based.
The next assay relates to HT-1080. In words: Inhibition of cell adhesion in human HT-1080 cells. It is filed as functional, cell-based.
The next assay has as its system A-375. In words: Inhibition of cell adhesion in human A-375 cells. The assay is classed as functional, cell-based.

Integrin alpha-5/beta-1, sequence (P05556 21-798 limits assumed): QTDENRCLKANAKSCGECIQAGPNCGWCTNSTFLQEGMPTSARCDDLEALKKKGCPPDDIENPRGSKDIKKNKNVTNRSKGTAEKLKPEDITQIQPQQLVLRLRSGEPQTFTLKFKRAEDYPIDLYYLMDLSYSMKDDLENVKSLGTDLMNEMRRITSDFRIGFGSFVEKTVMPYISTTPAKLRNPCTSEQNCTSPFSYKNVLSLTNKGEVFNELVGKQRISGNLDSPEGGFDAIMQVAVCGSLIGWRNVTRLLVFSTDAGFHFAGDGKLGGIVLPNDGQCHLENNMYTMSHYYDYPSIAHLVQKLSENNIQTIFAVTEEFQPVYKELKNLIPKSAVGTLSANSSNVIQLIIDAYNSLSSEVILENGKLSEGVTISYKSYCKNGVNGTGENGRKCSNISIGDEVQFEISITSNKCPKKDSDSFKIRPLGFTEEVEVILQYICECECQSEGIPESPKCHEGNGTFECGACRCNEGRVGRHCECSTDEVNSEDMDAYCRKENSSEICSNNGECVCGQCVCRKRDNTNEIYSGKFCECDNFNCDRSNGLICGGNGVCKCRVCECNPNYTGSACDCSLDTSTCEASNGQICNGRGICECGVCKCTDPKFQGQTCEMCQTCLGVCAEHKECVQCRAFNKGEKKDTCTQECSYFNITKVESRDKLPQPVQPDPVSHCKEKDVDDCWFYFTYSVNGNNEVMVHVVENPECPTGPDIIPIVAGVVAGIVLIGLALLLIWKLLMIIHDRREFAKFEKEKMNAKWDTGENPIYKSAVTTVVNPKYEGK
Integrin alpha-5/beta-1, sequence (P08648 42-894 limits assumed): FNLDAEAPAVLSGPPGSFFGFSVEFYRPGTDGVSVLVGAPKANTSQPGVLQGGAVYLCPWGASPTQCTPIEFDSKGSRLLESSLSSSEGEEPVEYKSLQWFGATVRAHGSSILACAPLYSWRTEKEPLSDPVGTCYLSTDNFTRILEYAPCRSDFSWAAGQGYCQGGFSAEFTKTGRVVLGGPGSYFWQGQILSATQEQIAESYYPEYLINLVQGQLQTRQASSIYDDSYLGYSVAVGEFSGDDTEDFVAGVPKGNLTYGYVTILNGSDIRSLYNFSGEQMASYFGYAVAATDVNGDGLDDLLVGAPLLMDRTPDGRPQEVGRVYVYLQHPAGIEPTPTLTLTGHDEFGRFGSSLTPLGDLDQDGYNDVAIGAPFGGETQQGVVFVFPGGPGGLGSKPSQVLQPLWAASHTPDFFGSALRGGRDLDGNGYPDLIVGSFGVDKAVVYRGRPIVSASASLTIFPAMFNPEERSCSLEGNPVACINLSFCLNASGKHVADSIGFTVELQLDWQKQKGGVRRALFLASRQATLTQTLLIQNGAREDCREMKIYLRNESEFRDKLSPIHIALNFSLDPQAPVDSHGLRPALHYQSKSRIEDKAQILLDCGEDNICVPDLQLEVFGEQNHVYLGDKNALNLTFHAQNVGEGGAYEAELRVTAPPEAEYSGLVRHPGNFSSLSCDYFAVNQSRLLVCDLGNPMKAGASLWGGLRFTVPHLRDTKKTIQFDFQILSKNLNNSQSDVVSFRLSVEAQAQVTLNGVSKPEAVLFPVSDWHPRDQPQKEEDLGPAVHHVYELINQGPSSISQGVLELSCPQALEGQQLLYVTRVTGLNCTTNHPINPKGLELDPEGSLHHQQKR
Integrin alpha-5/beta-1, sequence (P08648 895-1049 limits assumed): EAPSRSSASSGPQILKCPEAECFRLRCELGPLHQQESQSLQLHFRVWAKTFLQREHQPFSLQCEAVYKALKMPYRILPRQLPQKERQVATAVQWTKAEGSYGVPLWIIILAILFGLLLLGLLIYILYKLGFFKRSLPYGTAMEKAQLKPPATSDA

What is called IC50 is the midpoint of a concentration-inhibition curve. On to `CC[C@H](C)[C@H](NC(=O)[C@@H](N)C(C)C)C(=O)N[C@@H](CC(C)C)C(=O)N[C@H](C(=O)N[C@@H](CC(C)C)C(=O)N[C@@H](Cc1ccccc1)C(=O)O)C(C)C` (H-VILVLF-OH), for which the IC50 on Integrin alpha-5/beta-1 was 1560 nM.
Consider `CC(=O)N[C@H]1CSSC(C)(C)[C@@H](C(N)=O)NC(=O)[C@H](Cc2ccccc2)NC(=O)[C@H](CC(=O)O)NC(=O)CNC(=O)[C@H](CCCNC(=N)N)NC1=O` (Ac-CRGDF[Pen]-NH2; disulfide 1-6), for which the IC50 in the assay on HBL-100, in the assay on HT-1080 and in the assay with A-375 was 100 nM each time.
